In the supplement of paper PMC10307832:

Tests used:
Experiment in all cases: relative viability (nuclei count vs DMSO), 5 days (fraction); higher = more cells survive
Dactolisib + Pemetrexed = compound: Cn1c(=O)n(-c2ccc(C(C)(C)C#N)cc2)c2c3cc(-c4cnc5ccccc5c4)ccc3ncc21 [Dactolisib] + Nc1nc2[nH]cc(CCc3ccc(C(=O)N[C@@H](CCC(=O)O)C(=O)O)cc3)c2c(=O)[nH]1 [Pemetrexed] (partner 0.2 µM)
Summary of the method: (§1)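 After 5 days of treatment, lung cancer cells in 1536-well plates were fixed and stained in a single step (final 0.05% Triton X-100, 1% formaldehyde, 1 ug/ml Hoechst) and their nuclei counted on 4× images. Treatment had been applied by pin tool the day after seeding as one drug alone or as a fixed anchor-drug dose with five library-drug doses (not always all listed) in √10 steps. Relative viability is the nuclei count of treated wells divided by that of vehicle wells, and values are medians of duplicate plates.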

Dactolisib + Olaparib = compound: Cn1c(=O)n(-c2ccc(C(C)(C)C#N)cc2)c2c3cc(-c4cnc5ccccc5c4)ccc3ncc21 [Dactolisib] + O=C(c1cc(Cc2n[nH]c(=O)c3ccccc23)ccc1F)N1CCN(C(=O)C2CC2)CC1 [Olaparib] (partner 8 µM)
Summary of the method: as §1

AZ505 + Linsitinib = compound: C1CCC(CC1)N(CCNCCC2=C3C(=C(C=C2)O)NC(=O)CO3)C(=O)CCNCCC4=CC(=C(C=C4)Cl)Cl [AZ505] + C[C@]1(O)C[C@@H](c2nc(-c3ccc4ccc(-c5ccccc5)nc4c3)c3c(N)nccn32)C1 [Linsitinib] (partner 1 µM)
Summary of the method: as §1

Dactolisib + Crizotinib = compound: Cn1c(=O)n(-c2ccc(C(C)(C)C#N)cc2)c2c3cc(-c4cnc5ccccc5c4)ccc3ncc21 [Dactolisib] + C[C@@H](Oc1cc(-c2cnn(C3CCNCC3)c2)cnc1N)c1c(Cl)ccc(F)c1Cl [Crizotinib] (partner 1 µM)
Summary of the method: as §1

| Cell Line | relative viability (Dactolisib + Pemetrexed; first compound 0.002 µM) | relative viability (Dactolisib + Pemetrexed; first compound 0.006325 µM) | relative viability (Dactolisib + Pemetrexed; first compound 0.02 µM) | relative viability (Dactolisib + Pemetrexed; first compound 0.06325 µM) | relative viability (Dactolisib + Pemetrexed; first compound 0.2 µM) | relative viability (Dactolisib + Olaparib; first compound 0.002 µM) | relative viability (Dactolisib + Olaparib; first compound 0.006325 µM) | relative viability (Dactolisib + Olaparib; first compound 0.02 µM) | relative viability (Dactolisib + Olaparib; first compound 0.06325 µM) | relative viability (Dactolisib + Olaparib; first compound 0.2 µM) | relative viability (AZ505 + Linsitinib; first compound 0.08 µM) | relative viability (AZ505 + Linsitinib; first compound 0.253 µM) | relative viability (AZ505 + Linsitinib; first compound 0.8 µM) | relative viability (AZ505 + Linsitinib; first compound 2.53 µM) | relative viability (AZ505 + Linsitinib; first compound 8 µM) | relative viability (Dactolisib + Crizotinib; first compound 0.002 µM) | relative viability (Dactolisib + Crizotinib; first compound 0.006325 µM) | relative viability (Dactolisib + Crizotinib; first compound 0.02 µM) | relative viability (Dactolisib + Crizotinib; first compound 0.06325 µM) | relative viability (Dactolisib + Crizotinib; first compound 0.2 µM) |
| --- | --- | --- | --- | --- | --- | --- | --- | --- | --- | --- | --- | --- | --- | --- | --- | --- | --- | --- | --- | --- |
| HARA | 0.242 | 0.22 | 0.3 | 0.235 | 0.223 | 1.23 | 0.858 | 0.898 | 0.684 | 0.24 | 0.897 | 0.894 | 0.695 | 0.737 | 0.773 | 1.12 | 1.02 | 1.04 | 1.01 | 0.421 |
| NCI-H838 | 0.25 | 0.227 | 0.264 | 0.203 | 0.165 | 0.924 | 0.657 | 0.43 | 0.273 | 0.208 | 0.965 | 1.03 | 1.02 | 0.997 | 0.928 | 0.798 | 0.586 | 0.534 | 0.275 | 0.216 |
| NCI-H1755 | 0.414 | 0.389 | 0.455 | 0.393 | 0.412 | 0.987 | 0.886 | 0.86 | 0.733 | 0.476 | 0.968 | 0.984 | 0.924 | 0.985 | 0.974 | 0.931 | 0.802 | 0.823 | 0.596 | 0.438 |
| HCC-78 | 0.833 | 0.892 | 0.875 | 0.885 | 0.916 | 0.856 | 0.94 | 0.669 | 0.452 | 0.336 |  | 0.642 | 0.571 | 0.619 | 0.7 | 0.316 | 0.331 | 0.285 | 0.266 | 0.222 |
| IA-LM |  |  |  |  |  | 0.85 | 0.729 | 0.783 | 0.348 | 0.738 | 0.497 | 0.572 | 0.701 | 0.597 | 0.643 | 0.903 | 0.561 | 0.539 | 0.162 | 0.0865 |
| NCI-H322M | 0.664 | 0.641 | 0.643 | 0.523 | 0.474 | 0.752 | 0.789 | 0.774 | 0.719 | 0.674 | 0.895 | 0.863 | 0.983 | 0.981 | 0.95 | 0.827 | 1.02 | 0.863 | 0.684 | 0.641 |
| NCI-H3122 | 0.171 | 0.189 | 0.203 | 0.192 | 0.211 | 0.564 | 0.557 | 0.659 | 0.629 | 0.641 | 0.963 | 1.03 | 0.911 | 1.01 | 0.967 | 0.284 | 0.297 | 0.228 | 0.213 | 0.217 |
| NCI-H1793 | 0.751 | 0.409 | 0.266 | 0.214 | 0.168 | 0.784 | 0.299 | 0.254 | 0.18 | 0.169 | 0.766 | 0.769 | 0.932 | 1.03 | 1.06 |  |  |  |  |  |
| ChaGo-K-1 | 0.27 | 0.261 | 0.255 | 0.256 | 0.247 | 0.404 | 0.419 | 0.421 | 0.457 | 0.443 |  |  |  |  |  | 1.06 | 1.03 | 1.1 | 1.12 | 1.13 |
| NCI-H2342 | 0.75 | 0.833 | 0.721 | 0.779 | 0.599 | 0.411 | 0.369 | 0.501 | 0.376 | 0.382 |  |  |  |  |  |  |  |  |  |  |
| NCI-H1299 |  |  |  |  |  | 1.01 | 0.997 | 1.04 | 0.568 | 0.742 | 0.913 | 0.942 | 0.965 | 0.903 | 0.922 | 0.941 | 0.964 | 0.997 | 0.76 | 0.649 |
| NCI-H1650 | 0.342 | 0.418 | 0.385 | 0.383 | 0.299 | 1.03 | 0.704 | 0.722 | 0.498 | 0.568 |  |  |  |  |  | 0.832 | 0.944 | 0.718 | 0.823 | 0.559 |
| SW 900 | 0.498 | 0.48 | 0.474 | 0.259 | 0.271 | 1.22 | 0.853 | 0.689 | 0.502 | 0.424 |  |  |  |  |  |  |  |  |  |  |
| NCI-H727 |  |  |  |  |  |  | 0.79 | 0.874 | 0.699 | 0.629 | 0.388 | 0.24 | 0.272 | 0.427 | 0.275 | 0.915 | 0.671 | 0.666 | 0.354 | 0.374 |
| NCI-H1648 | 0.779 | 0.739 | 0.896 | 0.837 | 0.52 | 0.998 | 0.78 | 0.799 | 0.473 | 0.246 |  |  |  |  |  |  |  |  |  |  |
| NCI-H522 | 1.08 | 0.774 | 1.11 | 0.927 | 0.851 | 0.691 | 0.664 | 0.68 | 0.464 | 0.446 |  |  |  |  |  |  |  |  |  |  |
| NCI-H1395 | 0.537 | 0.883 | 0.705 | 0.722 | 0.521 | 0.439 | 0.434 | 0.428 | 0.387 | 0.401 | 0.972 | 1.01 | 0.949 | 0.971 | 1 |  |  |  |  |  |
| A549 |  |  |  |  |  | 0.286 | 0.302 | 0.244 | 0.122 | 0.0942 | 0.452 | 0.503 | 0.622 | 0.565 | 0.562 | 0.855 | 0.653 | 0.569 | 0.162 | 0.0827 |
| NCI-H2170 | 0.262 | 0.258 | 0.281 | 0.261 | 0.263 | 0.535 | 0.533 | 0.601 | 0.389 | 0.255 |  |  |  |  |  | 1.2 | 1.17 | 0.832 | 0.677 | 0.331 |
| NCI-H1563 | 0.797 | 0.751 | 0.755 | 0.628 | 0.512 |  |  |  |  |  | 1.24 | 1.32 | 1.13 | 1.29 | 1.15 | 0.839 | 0.789 | 0.76 | 0.62 | 0.597 |
| ABC-1 |  |  |  |  |  | 0.911 | 0.862 | 0.952 | 1.1 | 0.613 | 0.636 | 0.889 | 0.935 | 0.901 | 0.697 | 0.632 | 0.97 | 0.908 | 0.765 | 0.396 |
